Structures can show the parent of a compound that is named as a salt.
Experiments:
[1] = tested on: secretion of gastric acid; assay: perfused rat stomach test (inhibition of gastric acid secretion stimulated via histamine receptors); assay type: in vivo
Excerpt: Certain novel heterocyclic derivatives have now been found which have potent activity as H2-antagonists.

rats = assay: toxicity in rats; assay type: in vivo
[2] = administered intravenously to rats at doses of at least twice their ED50 values

Row | SMILES | ED50 [1] [mg/kg] | toxic effects (rats; administered orally to rats at a dose of 400 mg/kg) | toxic effects (rats; [2])
1 | OCCc1n[nH]c(CCCCOc2cccc(CN3CCCCC3)c2)n1 [2(a), 5-[4-[3-(1-Piperidinylmethyl)phenoxy]butyl]-1H-1,2,4-triazole-3-(2-ethanol) maleate (1:2)] | < 0.63 | – | –
2 | CC(O)c1n[nH]c(CCCCOc2cccc(CN3CCCCC3)c2)n1 (stereo not shown) [2(e), 5-[4-[3-(1-piperidinylmethyl)phenoxy]butyl]-1H-1,2,4-triazole-3-(1-ethanol)oxalate (1:2)] | < 0.63 | – | –
3 | CC(=O)OCc1n[nH]c(CCCCOc2cccc(CN3CCCCC3)c2)n1 [Example 3, 5-[4-[3-(1-Piperidinylmethyl)phenoxy]butyl]-1H-1,2,4-triazole-3-methanol acetate(ester)fumarate] | < 0.63 | – | –
4 | OCc1n[nH]c(CCCCOc2cccc(CN3CCCCC3)c2)n1 [Example 6] | < 0.63 | no toxic effects | –
5 | CS(=O)(=O)Cc1n[nH]c(CCCCOc2cccc(CN3CCCCC3)c2)n1 [Example 7, 3-(Methylsulphonyl)methyl-5-[4-[3-(1-piperidinylmethyl)phenoxy]butyl]-lH-l,2,4-triazole] | < 0.63 | – | no toxic effects
6 | O=Cc1n[nH]c(CCCCOc2cccc(CN3CCCCC3)c2)n1 [Example 8, 5-[4-[3-(1-Piperidinylmethyl)phenoxy]butyl]-1H-1,2,4-triazole-3-carboxaldehyde hydrate] | < 0.63 | – | –
7 | ON=Cc1n[nH]c(CCCCOc2cccc(CN3CCCCC3)c2)n1 [Example 9, 5-[4-[3-(1-Piperidinylmethyl)phenoxy]butyl]-1H-1,2,4,- triazole-3-carboxaldehyde oxime] | < 0.63 | – | no toxic effects

Reference: patent EP0050407A1, “3,5-Disubstituted-1,2,4-triazole compounds, processes for their preparation and pharmaceutical compositions containing them” (GLAXO GROUP LIMITED, priority 1980, dated 1982)
